From publication PMC6470795 (Molecules, 2019)
Like-named read-outs stand apart in the source and are kept apart here.

How the values were obtained:
[1] = system: hepatic carcinoma 97H cells; test: MTT antiproliferative assay, 97H cells; assay type: cell-based, human; conditions: read-out: IC50 of Against 97H cells
Excerpt: (§1) The cell lines, 97H (human liver cancer cell), Pc9 (human non-small cell lung cancer), HELA (human epithelial cervical cancer cell line), SJSA1 (human osteosarcoma cells), LO2 (human normal liver cells), and HLF (human embryonic lung fibroblast), used in this study were purchased from the Guangzhou ginny ou Biotechnology Co. Ltd. (Guangzhou, China). Cell lines were cultivated in Dulbecco’s Modified Eagle Medium (DMEM) containing 10% (v/v) heat-inactivated fetal bovine serum (FBS), 100 units/mL penicillin, and 100 μg/mL streptomycin.
(§2) For the cytotoxicity assay, the cells grown in the logarithmic phase were seeded into 96-well plates (5 × 10^3 cells/well) for 24 h, and then exposed to different concentrations of the test compounds for 48 h. After the attached cells had been incubated with 5 mg/mL MTT (Sigma, St. Louis, MO, USA) for another 4 h, the suspension was discarded and subsequently the dark blue crystals (formazan) were solubilized in dimethyl sulfoxide (DMSO). Then, the absorbance was measured at 570 nm using a multifunction microplate reader (Molecular Devices, Flex Station 3) (Thermo Fisher Scientific, San Jose, CA, USA), and each experiment was performed at least in triplicate.

[2] = system: Hela (human epithelial cervical cancer cells); test: MTT antiproliferative assay, Hela cells; assay type: cell-based; conditions: HeLa, 48 h, read-out: IC50 Hela
Excerpt: as §1, §2

[3] = system: Pc9 (human non-small cell lung cancer cells); test: MTT antiproliferative assay, Pc9 cells; assay type: cell-based; conditions: PC-9, 48 h, read-out: IC50 Pc9
Excerpt: as §1, §2

[4] = system: LO2 (human normal liver cells); test: MTT assay, LO2 normal cells; assay type: cell-based; conditions: 48 h, read-out: IC50 LO2
Excerpt: as §1, §2

[5] = system: HLF (human embryonic lung fibroblast cells); test: MTT assay, HLF normal cells; assay type: cell-based; conditions: 48 h, read-out: IC50 HLF
Excerpt: as §1, §2

[6] = system: SJSA1 (human osteosarcoma cells); test: MTT antiproliferative assay, SJSA1 cells; assay type: cell-based; conditions: SJSA-1, 48 h, read-out: IC50 SJSA1
Excerpt: as §1, §2

[7] = Homo sapiens, 97H cells, MTT, 48 h

Row | Structure (SMILES) | IC50 [1, 7] [nM] | melting point [°C] | also measured
1 | C[C@H](c1cccc(-c2ncc(OCC3CCN(C)CC3)cn2)c1)n1cc(-c2cccc(C#N)c2)cnc1=O [(R)-31e] | 18 ± 6 |  | 
2 | C[C@@H](c1cccc(-c2ncc(OCC3CCN(C)CC3)cn2)c1)n1cc(-c2cccc(C#N)c2)cnc1=O [(S)-31e] | 1830 ± 26 |  | 
3 | CN(C)CCCSc1cnc(-c2cccc(Cn3cc(-c4cccc(C#N)c4)cnc3=O)c2)nc1 [Compound 18, 5-(3-cyanophenyl)-1-(3-(5-((3-(dimethylamino)propyl)thio)pyrimidin-2-yl)benzyl)pyrimidin-2(1H)-one] | 360 to 550 |  | IC50 ([1]; 97H cells, MTT, 48 h): 443 ± 4 nM
4 | CN(C)CCCOc1cnc(-c2cccc(Cn3cc(-c4cccc(C#N)c4)cnc3=O)c2)nc1 [Compound 22, 5-(3-cyanophenyl)-1-(3-(5-(3-(dimethylamino)propoxy)pyrimidin-2-yl)benzyl)pyrimidin-2(1H)-one] | 559 ± 18 |  | 
5 | CN1CCC(COc2cnc(-c3cccc(Cn4cc(-c5cccc(C#N)c5)cnc4=O)c3)nc2)CC1 [Compound 25, 5-(3-cyanophenyl)-1-(3-(5-((1-methylpiperidin-4-yl)methoxy)pyrimidin-2-yl)benzyl)pyrimidin-2(1H)-one] | 360 to 550 | 116.7 to 118.2 | IC50 ([1]; 97H cells, MTT, 48 h): 361 ± 12 nM
6 | CC(c1cccc(-c2ncc(SCCCN(C)C)cn2)c1)n1cc(-c2cccc(C#N)c2)cc(F)c1=O (stereo not shown) [Compound 39, 5-(3-cyanophenyl)-1-(1-(3-(5-((3-(dimethylamino)propyl)thio)pyrimidin-2-yl)phenyl)ethyl)-3-fluoropyridin-2(1H)-one] | 206 ± 13 |  | 
7 | CN1CCC(COc2cnc(-c3cccc(Cn4nc(-c5cccc(C#N)c5)ccc4=O)c3)nc2)CC1 [Tepotinib, reference compound] |  |  | IC50 ([1]; Homo sapiens): 13 ± 8 nM; IC50 [2]: 11.2 ± 0.32 µM; IC50 [3]: 8.105 ± 0.012 µM; IC50 [4]: 10.3 ± 0.46 µM; IC50 [5]: 9.44 ± 0.15 µM; IC50 [6]: 12.2 ± 0.35 µM

Continued, in another order:

Row | IC50 [1, 7] [nM] | melting point [°C] | Structure (SMILES) | also measured
8 | 9800 | 106.3 to 107.9 | CN(C)CCCSc1cnc(-c2cccc(Cn3cc(-c4cccc(C#N)c4)ncc3=O)c2)nc1 [Compound 11a, 5-(3-cyanophenyl)-1-(3-(5-((3-(dimethylamino)propyl)thio)pyrimidin-2-yl)benzyl)pyrazin-2(1H)-one] | IC50 ([1]; 97H cells, MTT, 48 h): 9810 ± 790 nM
9 | 9100 ± 670 | 143.7 to 145.2 | CN(C)CCCSc1cnc(-c2cccc(Cn3cc(-c4cc(F)cc(F)c4)ncc3=O)c2)nc1 [Compound 11b, 5-(3,5-difluorophenyl)-1-(3-(5-((3-(dimethylamino)propyl)thio)pyrimidin-2-yl)benzyl)pyrazin-2(1H)-one] | 
10 | 186 ± 7 |  | CC(c1cccc(-c2ncc(SCCN(C)C)cn2)c1)n1cc(-c2cccc(C#N)c2)cnc1=O (stereo not shown) [Compound 31a, 5-(3-cyanophenyl)-1-(1-(3-(5-((2-(dimethylamino)ethyl)thio)pyrimidin-2-yl)phenyl)ethyl)pyrimidin-2(1H)-one] | 
11 | 149 ± 12 |  | CC(c1cccc(-c2ncc(SCCCN(C)C)cn2)c1)n1cc(-c2cccc(C#N)c2)cnc1=O (stereo not shown) [Compound 31b, 5-(3-cyanophenyl)-1-(1-(3-(5-((3-(dimethylamino)propyl)thio)pyrimidin-2-yl)phenyl)ethyl)pyrimidin-2(1H)-one] | 
12 | 216 ± 87 | 68.3 to 69.9 | CC(c1cccc(-c2ncc(OCCCN(C)C)cn2)c1)n1cc(-c2cccc(C#N)c2)cnc1=O (stereo not shown) [Compound 31c, 5-(3-cyanophenyl)-1-(1-(3-(5-(3-(dimethylamino)propoxy)pyrimidin-2-yl)phenyl)ethyl)pyrimidin-2(1H)-one] | 
13 | 196 ± 56 | 53.3 to 55 | CC(c1cccc(-c2ncc(OCCN(C)C)cn2)c1)n1cc(-c2cccc(C#N)c2)cnc1=O (stereo not shown) [Compound 31d, 5-(3-cyanophenyl)-1-(1-(3-(5-(2-(dimethylamino)ethoxy)pyrimidin-2-yl)phenyl)ethyl)pyrimidin-2(1H)-one] | 
14 | 248 ± 34 |  | CC(c1cccc(-c2ncc(OCCN3CCOCC3)cn2)c1)n1cc(-c2cccc(C#N)c2)cnc1=O (stereo not shown) [Compound 31f, 5-(3-cyanophenyl)-1-(1-(3-(5-(2-morpholinoethoxy)pyrimidin-2-yl)phenyl)ethyl)pyrimidin-2(1H)-one] | 
15 | 332 ± 44 | 86.9 to 88.6 | CC(c1cccc(-c2ncc(OCC3CCN(C)CC3)cn2)c1)n1cc(-c2cc(F)cc(F)c2)cnc1=O (stereo not shown) [Compound 31g, 5-(3,5-difluorophenyl)-1-(1-(3-(5-((1-methylpiperidin-4-yl)methoxy)pyrimidin-2-yl)phenyl)ethyl)pyrimidin-2(1H)-one] | 
16 | 149 ± 35 | 116.3 to 117.9 | CN(C)CCCSc1cnc(-c2cccc(Cn3cc(-c4cccc(C#N)c4)cc(F)c3=O)c2)nc1 [Compound 36a, 5-(3-cyanophenyl)-1-(3-(5-((3-(dimethylamino)propyl)thio)pyrimidin-2-yl)benzyl)-3-fluoropyridin-2(1H)-one] | 
17 | 3810 ± 45 | 128.3 to 129.9 | CN(C)CCCSc1cnc(-c2cccc(Cn3cc(-c4cncc(F)c4)cc(F)c3=O)c2)nc1 [Compound 36b, 1-(3-(5-((3-(dimethylamino)propyl)thio)pyrimidin-2-yl)benzyl)-5,5′-difluoro-[3,3′-bipyridin]-6(1H)-one] | 
18 | 671 ± 56 |  | CN(C)CCCSc1cnc(-c2cccc(Cn3cc(-c4cncnc4)cc(F)c3=O)c2)nc1 [Compound 36c, 1-(3-(5-((3-(dimethylamino)propyl)thio)pyrimidin-2-yl)benzyl)-3-fluoro-5-(pyrimidin-5-yl)pyridin-2(1H)-one] | 
